Assay: Absorption maximum of aminobutadienes in methanol (or ethanol)
Type: physicochemical
Details: in methanol (or ethanol when not soluble in methanol)
From the text: The aminobutadiene according to the present invention has the general formula (I) disclosed above. A preferred class of aminobutadienes is that in which R3 represents —COOH, —COOR5, —COR5 or SO2R5 and R4 represents a carboxyl group, —COOR6, —COR6 or —SO2R6, wherein R1, R2, R5 and R6 have the meanings indicated above. Examples of aminobutadienes according to the general formula (I) are for example disclosed in U.S. Pat. No. 4,195,999. Table 1 lists a number of aminobutadienes according to the present invention which can be coupled to an amine rich polymer, including their absorption maxima in methanol (or ethanol when not soluble in methanol).

Absorption maximum: 395 nm
Structure (SMILES): CCCCC(CC)COC(=O)/C(=C\C=C\N1CCCCC1)C(C)=O (stereo not shown) [2.3]
